# Measurements taken from patent publication US10035810B2, “5,6-dihydro-4H-benzo[b]thieno-[2,3-d]azepine derivative” (PULMOCIDE LIMITED, priority 2014, dated 2018).
# How the values were obtained:
# HEp2 cells = test: Cell viability: resazurin assay; assay type: cell-based, human; details: incubation with compound
# Description: Cell Viability: Resazurin Assay
# HEp2 cells were seeded in 384-well plates (10^3/well/50 μL; BD Falcon Ref 353962) in FBS DMEM (5%, containing 2 mM L-glutamine and 1 mM sodium pyruvate) one day before experimentation. Serum-free DMEM (50 μL) was added to test wells while for control wells the media was removed and sterile water (100 μL) was added. Compound (I) (0.5 μL DMSO solution) was added to give a final DMSO concentration of 0.5%. Hep2 cells were incubated with each test compound for 5 days (37° C./5% CO2 in 5% FBS) and then resazurin stock solution (5 μL; 0.03%) was added to each well and the plate incubated for a further 6 hr (37° C./5% CO2). The fluorescence of each well at 545 nm (excitation) and 590 nm (emission) was determined using a multi-scanner (Clariostar: BMG Labtech). The percentage loss of cell viability was calculated for each well relative to vehicle (0.5% DMSO) treatment.
# Any apparent increase in cell viability associated with test compound treatment relative to vehicle is consequently tabulated as a negative percentage. Where appropriate, a CC50 value was calculated from the concentration-response curve generated for Compound (I).
# RSV A2 F-protein = test: RSV F protein expression in BEAS2B bronchial epithelial cells; assay type: cell-based; details: human respiratory syncytial virus, BEAS-2B, 72 h, read-out: RSV A2 F-protein IC50
# Description: Assessment of RSV F Protein Expression in BEAS2B Bronchial Epithelial Cells
# An early event which follows the infection of epithelial cells by RSV is the expression of RSV F-protein on the cells' surface. BEAS2B cells (SV40-immortalised human bronchial epithelial cell line) were grown in 96 well plates. Once more than 70% confluent, cells were infected with RSV A2 (#0709161v, NCPV, Public Health England, Wiltshire) at an MOI of 0.01 in clear RPMI-1640 medium (Life technologies, Paisley, UK) with 2% FBS (Life technologies, Paisley, UK), and incubated for 3 days (37° C./5% CO2).
# Supernatant was aspirated and the cells were fixed with 4% formaldehyde (100 μL in PBS solution) for 20 min, washed 3 times with washing buffer (200 μL; PBS containing 0.05% Tween-20) and incubated with blocking solution (100 μL; 5% Marvel milk in PBS) for 1 hr. […] The resultant signal was determined colourimetrically (OD: 450 nm with a reference wavelength of 655 nm) in a microplate reader (Multiskan FC®, ThermoFisher Scientific). […] After washing with PBS (200 μL) three times, 1% SDS (100 μL) was added to each well, and plates were shaken lightly for 1 hr prior to reading the absorbance at 595 nm. The measured OD450-655 readings were corrected for cell number by dividing the OD450-655 by the OD595 readings. […]
# hRSV/A/Long = test: RSV infection in cotton rats: virus titre in lung homogenate (plaque assay); assay type: in vivo, cotton rats (Sigmodon hispidus)
structure (smiles),measurement,setting,value
"Cc1cnc(N2CC3(CCOCC3)C2)c(C(=O)Nc2ccc(C(=O)N3CCc4cc(C(=O)Nc5c(C)cccc5F)sc4-c4ccccc43)cc2)c1 [Compound (I), N-(2-fluoro-6-methylphenyl)-6-(4-(5-methyl-2-(7-oxa-2-azaspiro[3.5]nonan-2-yl)nicotinamido)benzoyl)-5,6-dihydro-4H-benzo[b]thieno[2,3-d]azepine-2-carboxamide]",Effect on cell viability (in words),HEp2 cells,No effect on cell viability
same,IC50,RSV A2 F-protein,0.17 nM
same,Virus titre in the lungs (in words),hRSV/A/Long; RSV A2 infected cotton rats,completely inhibited virus titre
same,Virus titre in lung homogenates (in words),"hRSV/A/Long; infected cotton rats, day 4",potent dose-dependent inhibition of virus titre
